Laboratory results: doi:10.1101/580449v1 (biorxiv, 2019)

How the values were obtained:
[1] = biological target: T1, CSTZM (wildtype sequence) (Zea mays, UniProt B4FZ94); assay: GFP-thermal shift titration; type: binding
T1 sequence (B4FZ94 1-322): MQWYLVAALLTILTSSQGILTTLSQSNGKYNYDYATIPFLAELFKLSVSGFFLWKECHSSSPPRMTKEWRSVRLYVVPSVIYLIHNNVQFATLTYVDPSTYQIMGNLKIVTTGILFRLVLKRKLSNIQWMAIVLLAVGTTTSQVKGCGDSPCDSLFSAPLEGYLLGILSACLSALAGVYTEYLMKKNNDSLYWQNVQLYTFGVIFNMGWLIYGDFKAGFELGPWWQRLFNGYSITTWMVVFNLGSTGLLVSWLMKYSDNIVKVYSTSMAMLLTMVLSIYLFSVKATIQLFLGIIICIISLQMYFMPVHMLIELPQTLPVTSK

hCST = biological target: T2, hCST (Homo sapiens, UniProt P78382); assay: GFP-thermal shift titration; type: binding
T2 sequence (P78382 1-337): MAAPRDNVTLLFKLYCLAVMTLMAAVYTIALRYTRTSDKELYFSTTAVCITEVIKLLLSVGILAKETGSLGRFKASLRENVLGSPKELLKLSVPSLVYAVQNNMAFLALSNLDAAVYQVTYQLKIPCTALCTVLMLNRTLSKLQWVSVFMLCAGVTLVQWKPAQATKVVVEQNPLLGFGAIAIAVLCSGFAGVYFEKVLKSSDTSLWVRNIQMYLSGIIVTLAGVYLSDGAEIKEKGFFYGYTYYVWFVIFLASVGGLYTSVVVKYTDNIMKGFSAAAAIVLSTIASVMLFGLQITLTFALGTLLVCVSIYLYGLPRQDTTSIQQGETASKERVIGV

| Kd [1] [µM] | Kd (hCST) [µM] | Structure (SMILES) |
| --- | --- | --- |
| 40 | 40 | Nc1ccn([C@@H]2O[C@H](COP(=O)(O)O)[C@@H](O)[C@H]2O)c(=O)n1 [CMP] |
| 3100 ± 200 | 1500 ± 300 | CC(=O)N[C@H]1[C@H]([C@H](O)[C@H](O)CO)O[C@](OP(=O)(O)OC[C@H]2O[C@@H](n3ccc(N)nc3=O)[C@H](O)[C@@H]2O)(C(=O)O)C[C@@H]1O [CMP-sialic acid] |
